Patent EP3748362A1, “IN VITRO METHOD FOR DETECTING RENAL DISEASE” (Fundacion Instituto De Investigacion Sanitaria Fundacion …, priority 2019, dated 2020)

Assays:
NF-κB2 = NF-κB2 activation (p52 western blot) in MARSS gene silenced HK2 cells stimulated with TWEAK; type: cell-based, Human; details: paricalcitol 15 µmol/L 48 hours, TWEAK 100 ng/ml
Description: Human kidney proximal tubule epithelial cells (HK2 cell line, ATCC CRL-2190) were grown in RPMI 1640 with 10% fetal bovine serum (FBS), 1% glutamine, 100 U/ml penicillin, 100 µg/ml streptomycin, 5 µg/ml insulin-transferrin-selenite and 36 ng/ml hydrocortisone in 5% CO2 at 37° C. When cells reached 60 to 70% confluence, they were serum-depleted for 24 hours before the experiment.
Cells were stimulated with 100ng/ml recombinant human soluble TWEAK (Millipore) or p-200 µg/ml cresyl-sulfate (Raymond Vanholder and Griet Glorieux, University of Gent, Belgium). Concentrations of TWEAK and p-cresyl-sulfate were based on previously published dose-response experiments (Poveda et al. 2014; Sanz et al. 2008). […] DMSO, used as a solvent in some cases, had no effect on cell viability or on gene expression levels.
For western blot, cell (25 µg/lane) and kidney (100-150 µg/lane) protein extracts were separated on 6%-12% polyacrylamide-SDS gels under reducing conditions. […] Autoradiographs were scanned using the Gel Doc™ EZ imager and analyzed with the Image Lab 3.0 software (BioRad). […]

TRAF3 [1] = assay: Renal TRAF3 (western blot), TWEAK-mediated renal inflammation in mice; type: in vivo; details: TWEAK 0.5 µg model; paricalcitol 750 ng/kg/day i.p.; sacrificed 24 hours after TWEAK
Description: All animal procedures were performed according to the guidelines of animal research in the European Community and with prior approval by the Ethics Committee of the Health Research of the IIS-Fundacion Jiménez Díaz. For in vivo studies, mice received a daily intraperitoneal injection of the VDRA Paricalcitol starting 48 hours prior to induction of kidney damage.
At the time of sacrifice, animals were anesthetized with 5 mg/kg xylazine (Rompun, Bayer AG) and 35 mg/kg ketamine (Ketolar, Pfizer) and the kidneys perfused in situ with cold saline before removal. Then, kidney portions were fixed in formalin buffer for immunohistochemistry studies or immediately frozen in liquid nitrogen for gene and protein studies.
TWEAK administration: C57BL/6 female mice (9-12 weeks, weight 20 g, 7-8 animals per group), received a single intraperitoneal injection of 0.5 µg TWEAK dissolved in saline and were sacrificed 24 hours later, as previously described (Sanz et al. 2008). Controls were injected with the saline vehicle (n=8-10 mice per group). TWEAK endotoxin level were <0.1 ng/mg, confirmed by MALDI-TOF. […]
(§1) For western blot, cell (25 µg/lane) and kidney (100-150 µg/lane) protein extracts were separated on 6%-12% polyacrylamide-SDS gels under reducing conditions. […] Autoradiographs were scanned using the Gel Doc™ EZ imager and analyzed with the Image Lab 3.0 software (BioRad).

[2] = test system: CCL2, CCL5 and IL6, CCL21A and CCL19; assay: Proinflammatory gene expression (real time PCR) in TWEAK-stimulated PBMCs from healthy donors; type: cell-based, Human; details: 15 µmol/L paricalcitol 48 hours, TWEAK 100 ng/mL 6 hours
TRAF3 [3] = assay: TRAF3 protein (western blot) and mRNA (real time RT-PCR) levels in PBMCs from ESRD patients treated or not with paricalcitol; type: in vivo, human; details: PBMCs of paricalcitol-treated ESRD patients on hemodialysis
Description: Intracellular protein and mRNA levels were measured in PBMCs from ESRD patients on hemodialysis. Inclusion criteria were as follows: age >45 years; male sex; informed consent; and absence of active inflammatory, infectious, or malignant diseases at the initiation or during the study. This study was approved by the IIS-Fundación Jiménez Diaz Ethics Committee. Patients were enrolled after providing written informed consent. PBMCs were separated from whole blood samples (30 ml into EDTA tubes) by a density gradient centrifugation method using Ficoll density gradient centrifugation. In total, 50x10^6 of PBMCs were obtained from 30 ml of whole blood and 6x10^6 PBMCs were used to isolate protein, RNA and nuclear/cytosolic protein levels using the NE-PER Reagent (Pierce) following the manufacturer's instructions.
as §1
Total RNA was isolated from cells and mouse kidney samples with Trizol (Invitrogen). […] The mRNA copy numbers were calculated for each sample by the instrument software using Ct value. Results are expressed in copy numbers, calculated relative to unstimulated cells or control mice, after normalization against 18S.

C[C@H](/C=C/[C@H](C)C(C)(C)O)[C@H]1CC[C@H]2/C(=C/C=C3C[C@@H](O)C[C@H](O)C3)CCC[C@]12C [paricalcitol]
TWEAK-induced NF-κB2 activation (NF-κB2): diminished | renal TRAF3 protein levels (TRAF3 [1]): restored renal TRAF3 protein levels to values of control mice | TWEAK-induced upregulation of several proinflammatory genes, such as CCL2, CCL5 and IL6, as well as the NF-κB2-controlled genes CCL21A and CCL19 [2]: inhibited | TRAF3 mRNA levels (TRAF3 [3]; real time RT-PCR): no changes | TRAF3 protein levels (TRAF3 [3]; western blot, vs healthy controls): restored to values in the range of healthy controls
